Source: US12077768B2, “Plants having increased tolerance to herbicides” (BASF AGRO B.V., priority 2013, dated 2024)

System: mutated PPO sequences (e.g. SEQ ID NOs: 1, 30, 31, 11, 37, and 117) as wildtype or with respective mutations, expressed in leaf discs
Test: Herbicide tolerance of transiently transformed tobacco leaf discs expressing wildtype or mutated PPO: tolerance factors from IC50 of PSII yield inhibition versus empty vector
Assay type: cell-based, Nicotiana benthamiana

C#CCN1C(=O)C(F)(F)Oc2cc(F)c(-n3c(=O)n(C)c(=S)n(C)c3=O)cc21 [1,5-dimethyl-6-thioxo-3-(2,2,7-trifluoro-3-oxo-4-(prop-2-ynyl)-3,4-dihydro-2H-benzo[b][1,4]oxazin-6-yl)-1,3,5-triazinane-2,4-dione]
Tolerance factor (IC50 of PSII yield inhibition, transformed versus empty vector-transformed leaf discs): 28.7
